Test results published in patent US12428406B2 (PMV Pharmaceuticals, Inc., priority 2019, dated 2025).

These molecules were tested against T1, p53 Y220C (Homo sapiens, UniProt P04637, Y220C) (assay: In vitro DNA binding activity assay (HTRF / TR-FRET): stabilization of p53 Y220C and increase of its DNA binding activity). Details: recombinant His-tagged p53 Y220C DNA binding domain (aa 94-312), biotin-labeled consensus DNA, incubated at 27° C. or 29° C. for 60 min.
T1 construct: The recombinant protein was a truncation mutant containing only amino acids 94-312 of p53; made in house; host or cells: E. coli
T1 sequence (P04637 94-312, change not shown): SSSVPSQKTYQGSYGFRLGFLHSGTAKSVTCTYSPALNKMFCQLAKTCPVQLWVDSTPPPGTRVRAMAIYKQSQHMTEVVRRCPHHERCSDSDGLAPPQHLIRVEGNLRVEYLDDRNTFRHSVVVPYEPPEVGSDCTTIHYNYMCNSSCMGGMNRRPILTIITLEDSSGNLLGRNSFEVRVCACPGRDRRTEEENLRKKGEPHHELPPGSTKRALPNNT
Assay type: biochemical
Procedure, shortened: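 His-tagged p53 Y220C, E. coli-expressed, binding biotin-labeled consensus DNA measured by HTRF (anti-His-APC, streptavidin-europium). Compounds from 4.5 mM DMSO stocks, 3-fold serial dilutions; incubations at room temperature 15 min, then 20 min. SC150 = concentration raising DNA binding by 50%.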
For `COc1cc(S(=O)(=O)NC2CCOCC2)ccc1NCC#Cc1cc2c(NC3CCN(CC(O)CO)CC3)cccc2n1CC(F)(F)F` (centres unmarked) [Compound 552A, 4-{[3-(4-{[1-(2,3-dihydroxypropyl)piperidin-4-yl]amino}-1-(2,2,2-trifluoroethyl)-1H-indol-2-yl)prop-2-yn-1-yl]amino}-3-methoxy-N-(oxan-4-yl) benzene-1-sulfonamide], the “SC150 (concentration of the compound required to increase the DNA binding activity by 50%)” value was “+ (+ = 0 μM ≤ SC150 < 0.05 μM)”.
For `COc1cc(S(C)(=O)=O)ccc1NCC#Cc1cc2c(N[C@@H]3CCN(CCO)C[C@@H]3F)cccc2n1CC(F)(F)F` [Compound 853A, 2-[(3S,4R)-3-fluoro-4-[(2-{3-[(4-methanesulfonyl-2-methoxyphenyl)amino]prop-1-yn-1-yl}-1-(2,2,2-trifluoroethyl)-1H-indol-4-yl)amino]piperidin-1-yl]ethan-1-ol], the “SC150 (concentration of the compound required to increase the DNA binding activity by 50%)” value was “+ (+ = 0 μM ≤ SC150 < 0.05 μM)”.
With `COc1cc(C(=O)NCC(COC(C)=O)OC(C)=O)ccc1NCC#Cc1cc2c(N[C@@H]3CCN(C)C[C@@H]3F)cccc2n1CC(F)(F)F` (stereo partly drawn) [Compound 970A, 1-(acetyloxy)-3-[(4-{[3-(4-{[(3S,4R)-3-fluoro-1-methylpiperidin-4-yl]amino}-1-(2,2,2-trifluoroethyl)-1H-indol-2-yl)prop-2-yn-1-yl]amino}-3-methoxyphenyl)formamido]propan-2-yl acetate] the “SC150 (concentration of the compound required to increase the DNA binding activity by 50%)” value was “+ (+ = 0 μM ≤ SC150 < 0.05 μM)”.
For `CCNC(=O)c1ccc(NCC#Cc2cc3c(N[C@H]4CC[C@@H](N5CC6(COC6)C5)CC4)cccc3n2CC(F)(F)F)c(OC)c1` [Compound 238A, N-ethyl-3-methoxy-4-{[3-(4-{[(1R,4R)-4-{2-oxa-6-azaspiro[3.3]heptan-6-yl}cyclohexyl]amino}-1-(2,2,2-trifluoro-ethyl)-1H-indol-2-yl)prop-2-yn-1-yl]amino} benzamide], the “SC150 (concentration of the compound required to increase the DNA binding activity by 50%)” value was “+ (+ = 0 μM ≤ SC150 < 0.05 μM)”.
For `CN(C)[C@H]1CC[C@@H](Nc2cccc3c2cc(C#CCNc2ccc(S(C)(=O)=O)cc2C(F)(F)F)n3CC(F)(F)F)CC1` [Compound 138A, (1S,4S)-N^4-[2-(3-{[4-methanesulfonyl-2-(trifluoromethyl)phenyl]amino}prop-1-yn-1-yl)-1-(2,2,2-trifluoroethyl)-1H-indol-4-yl]-N^1,N^1-dimethylcyclohexane-1,4-diamine], the “SC150 (concentration of the compound required to increase the DNA binding activity by 50%)” value was “+++ (+++ = 0.1 μM ≤ SC150 < 0.2 μM)”.
For `CCOc1cc(S(C)(=O)=O)ccc1NCC#Cc1cc2c(N[C@H]3CC[C@@H](N(C)C)CC3)cccc2n1CC(F)(F)F` [Compound 96A, (1S,4S)-N^4-(2-{3-[(2-ethoxy-4-methane-sulfonylphenyl)amino]prop-1-yn-1-yl}-1-(2,2,2-trifluoroethyl)-1H-indol-4-yl)-N^1,N^1-dimethylcyclohexane-1,4-diamine], the “SC150 (concentration of the compound required to increase the DNA binding activity by 50%)” value was “++ (++ = 0.05 μM ≤ SC150 < 0.1 μM)”.
`COc1cc(S(N)(=O)=O)ccc1NCC#Cc1cc2c(NC3CCN(C(=O)CO)CC3)cccc2n1CC(F)(F)F` [Compound 748A] was tested, and the “SC150 (concentration of the compound required to increase the DNA binding activity by 50%)” value was “+ (+ = 0 μM ≤ SC150 < 0.05 μM)”.
In the case of `CCC(=O)NS(=O)(=O)c1ccc(NCC#Cc2cc3c(N[C@H]4CC[C@@H](N(C)C)CC4)cccc3n2CC(F)(F)F)c(OC)c1` [Compound 86A], the “SC150 (concentration of the compound required to increase the DNA binding activity by 50%)” value is reported as “+ (+ = 0 μM ≤ SC150 < 0.05 μM)”.
`COc1cc(S(=O)(=O)N2CCN(C)CC2)ccc1NCC#Cc1cc2c(NC3CCN(CC(O)CO)CC3)cccc2n1CC(F)(F)F` (centres unmarked) [Compound 559A, 3-[4-({2-[3-({2-methoxy-4-[(4-methylpiperazin-1-yl)sulfonyl]phenyl}amino)prop-1-yn-1-yl]-1-(2,2,2-trifluoroethyl)-1H-indol-4-yl}amino)piperidin-1-yl]propane-1,2-diol] was tested, and the “SC150 (concentration of the compound required to increase the DNA binding activity by 50%)” value was “+ (+ = 0 μM ≤ SC150 < 0.05 μM)”.
In the case of `COc1cc(S(C)(=O)=O)ccc1NCC#Cc1cc2c(NC3CCOCC3)c(OC)ccc2n1CC(F)(F)F` [Compound 1012A, 2-{3-[(4-methanesulfonyl-2-methoxyphenyl)amino]prop-1-yn-1-yl}-5-methoxy-N-(oxan-4-yl)-1-(2,2,2-trifluoroethyl)-1H-indol-4-amine], the “SC150 (concentration of the compound required to increase the DNA binding activity by 50%)” value is reported as “++++ (++++ = 0.2 μM ≤ SC150 < 1 μM)”.
In the case of `CNC(=O)c1cc(OC)c(NCC#Cc2cc3c(NC4CCN(C)CC4)cccc3n2CC(F)(F)F)cc1F` [Compound 516A, 2-fluoro-5-methoxy-N-methyl-4-[(3-{4-[(1-methylpiperidin-4-yl)amino]-1-(2,2,2-trifluoroethyl)-1H-indol-2-yl}prop-2-yn-1-yl)amino]benzamide], the “SC150 (concentration of the compound required to increase the DNA binding activity by 50%)” value is reported as “+ (+ = 0 μM ≤ SC150 < 0.05 μM)”.
In the case of `COc1cc(S(N)(=O)=O)ccc1NCC#Cc1cc2c(N[C@@H]3CCN(C)C[C@@H]3F)cccc2n1CC(F)(F)F` [Compound 791A, 4-{[3-(4-{[(3S,4R)-3-fluoro-1-methylpiperidin-4-yl]amino}-1-(2,2,2-trifluoroethyl)-1H-indol-2-yl)prop-2-yn-1-yl]amino}-3-methoxybenzene-1-sulfonamide], the “SC150 (concentration of the compound required to increase the DNA binding activity by 50%)” value is reported as “+ (+ = 0 μM ≤ SC150 < 0.05 μM)”.
`COc1cc(C(=O)NCCS(C)(=O)=O)ccc1NCC#Cc1cc2c(N[C@@H]3CCN(C)C[C@@H]3F)cccc2n1CC(F)(F)F` [Compound 969A, 4-{[3-(4-{[(3S,4R)-3-fluoro-1-methylpiperidin-4-yl]amino}-1-(2,2,2-trifluoroethyl)-1H-indol-2-yl)prop-2-yn-1-yl]amino}-N-(2-methanesulfonylethyl)-3-methoxybenzamide] was tested, and the “SC150 (concentration of the compound required to increase the DNA binding activity by 50%)” value was “+ (+ = 0 μM ≤ SC150 < 0.05 μM)”.
`COCC(O)CN1CCC(Nc2cccc3c2cc(C#CCNc2ccc(S(C)(=O)=O)cc2OC)n3CCCl)CC1` (centres unmarked) [Compound 700A, 1-(4-{[1-(2-chloroethyl)-2-{3-[(4-methanesulfonyl-2-methoxyphenyl)amino]prop-1-yn-1-yl}-1H-indol-4-yl]amino}piperidin-1-yl)-3-methoxypropan-2-ol] was tested, and the “SC150 (concentration of the compound required to increase the DNA binding activity by 50%)” value was “+ (+ = 0 μM ≤ SC150 < 0.05 μM)”.
In the case of `COc1cc(S(C)(=O)=O)ccc1NCC#Cc1cc2c(N[C@H]3CCN(CC(N)=O)C[C@H]3F)cccc2n1CC(F)(F)F` (racemic) [Compound 811A, rac-2-[(3R,4S)-3-fluoro-4-[(2-{3-[(4-methanesulfonyl-2-methoxyphenyl)amino]prop-1-yn-1-yl}-1-(2,2,2-trifluoroethyl)-1H-indol-4-yl)amino]piperidin-1-yl]acetamide], the “SC150 (concentration of the compound required to increase the DNA binding activity by 50%)” value is reported as “+ (+ = 0 μM ≤ SC150 < 0.05 μM)”.
`CNC(=O)c1ccc(NCC#Cc2cc3c(N[C@H]4CC[C@H](N(C)C)CC4)cccc3n2CC(F)(F)F)c(OCF)c1` [Compound 106A, 3-(fluoromethoxy)-N-methyl-4-{[3-(4-{[(1R,4R)-4-(dimethyl-amino)cyclohexyl]amino}-1-(2,2,2-trifluoro-ethyl)-1H-indol-2-yl)prop-2-yn-1-yl]amino}benzamide] was tested, and the “SC150 (concentration of the compound required to increase the DNA binding activity by 50%)” value was “+ (+ = 0 μM ≤ SC150 < 0.05 μM)”.
For `COc1cc(C(=O)N[C@H](C)CO)ccc1NCC#Cc1cc2c(N[C@@H]3CCN(C)C[C@@H]3F)cccc2n1CC(F)(F)F` [Compound 950A, 4-{[3-(4-{[(3S,4R)-3-fluoro-1-methylpiperidin-4-yl]amino}-1-(2,2,2-trifluoroethyl)-1H-indol-2-yl)prop-2-yn-1-yl]amino}-N-[(2R)-1-hydroxypropan-2-yl]-3-methoxybenzamide], the “SC150 (concentration of the compound required to increase the DNA binding activity by 50%)” value was “+ (+ = 0 μM ≤ SC150 < 0.05 μM)”.
For `COCCN1CC[C@@H](Nc2cccc3c2cc(C#CCNc2ccc(C(=O)O)cc2OC)n3CC(F)(F)F)[C@@H](F)C1` [Compound 898A], the “SC150 (concentration of the compound required to increase the DNA binding activity by 50%)” value was “+ (+ = 0 μM ≤ SC150 < 0.05 μM)”.
`COCCN(C)S(=O)(=O)c1ccc(NCC#Cc2cc3c(NC4CCS(=O)(=O)CC4)cccc3n2CC(F)(F)F)c(OC)c1` [Compound 1046A, 4-[(3-{4-[(1,1-dioxo-1λ^6-thian-4-yl)amino]-1-(2,2,2-trifluoroethyl)-1H-indol-2-yl}prop-2-yn-1-yl)amino]-3-methoxy-N-(2-methoxyethyl)-N-methylbenzene-1-sulfonamide] was tested, and the “SC150 (concentration of the compound required to increase the DNA binding activity by 50%)” value was “+ (+ = 0 μM ≤ SC150 < 0.05 μM)”.
In the case of `COc1cc(C(=O)N2CCOCC2)ccc1NCC#Cc1cc2c(N[C@@H]3CCN(C)C[C@@H]3F)cccc2n1CC(F)(F)F` [Compound 909A], the “SC150 (concentration of the compound required to increase the DNA binding activity by 50%)” value is reported as “+ (+ = 0 μM ≤ SC150 < 0.05 μM)”.
With `COCC(O)CN1CC[C@H](Nc2cccc3c2cc(C#CCNc2ccc(S(C)(=O)=O)cc2OC)n3CC(F)(F)F)[C@H](C)C1` (mixture of isomers) [Compound 701A, rac-1-[(3R,4R)-4-[(2-{3-[(4-methanesulfonyl-2-methoxyphenyl)amino]prop-1-yn-1-yl}-1-(2,2,2-trifluoroethyl)-1H-indol-4-yl)amino]-3-methylpiperidin-1-yl]-3-methoxypropan-2-ol] the “SC150 (concentration of the compound required to increase the DNA binding activity by 50%)” value was “+ (+ = 0 μM ≤ SC150 < 0.05 μM)”.
In the case of `COc1cc(C(=O)O)ccc1NCC#Cc1cc2c(N[C@H]3CCN(CC(=O)N(C)C)C[C@H]3F)cccc2n1CC(F)(F)F` [Compound 927A, 4-{[3-(4-{[(3R,4S)-1-[(dimethylcarbamoyl)methyl]-3-fluoropiperidin-4-yl]amino}-1-(2,2,2-trifluoroethyl)-1H-indol-2-yl)prop-2-yn-1-yl]amino}-3-methoxybenzoic acid], the “SC150 (concentration of the compound required to increase the DNA binding activity by 50%)” value is reported as “+ (+ = 0 μM ≤ SC150 < 0.05 μM)”.
For `CCN(CC)[C@H]1CC[C@H](Nc2cccc3c2cc(C#CCNc2ccc(C(=O)NC)cc2OC)n3CC(F)(F)F)CC1` [Compound 144A, 3-methoxy-N-methyl-4-{[3-(4-([(1R,4R)-4-(diethylamino)cyclohexyl]amino}-1-(2,2,2-trifluoro-ethyl)-1H-indol-2-yl)prop-2-yn-1-yl]amino}benzamide], the “SC150 (concentration of the compound required to increase the DNA binding activity by 50%)” value was “+ (+ = 0 μM ≤ SC150 < 0.05 μM)”.
